Like-named read-outs stand apart in the source and are kept apart here.
Experiments:
rhSYK = rhSYK (Homo sapiens, UniProt P43405); experiment: biochemical
[1] = molecular target: recombinant human SYK (GST-hSYK fusion protein) (Homo sapiens, UniProt P43405); details: read-out: rhSYK Activity
Description: Homogeneous Time-Resolved Fluorescence (HTRF) Assay for the Recombinant Human SYK Enzyme:

| SMILES | IC50 ([1]; Table 113A) | IC50 ([1]; Table 113B) | further results |
| --- | --- | --- | --- |
| Cc1cc(Nc2nccc(C(F)(F)F)n2)cc(-c2cnc(C(C)(O)c3ccc(C(N)=O)cc3)s2)c1 (single isomer, unassigned) [Example 117-20] |  |  | IC50 (rhSYK): < 0.1 µM |
| Cc1cc(Nc2nccc(C(F)(F)F)n2)cc(-c2cnc(C3(O)CCC(C(N)=O)C3)s2)c1 (single isomer, unassigned) [Example 119-2] |  |  | IC50 (rhSYK): < 0.1 µM |
| Cc1cc(Nc2nccc(C)n2)cc(-c2cnc(C3(O)CCC(C(N)=O)C(C)C3)s2)c1 (single isomer, unassigned) [Example 119-5] |  |  | IC50 (rhSYK): < 0.1 µM |
| Cc1cc(Nc2nccc(C(F)(F)F)n2)cc(-c2cnc(C3(O)CCC(C(N)=O)C(C)C3)s2)c1 (single isomer, unassigned) [Example 119-111] |  |  | IC50 (rhSYK): < 0.1 µM |
| CCOC(=O)C1CCC(O)(c2ncc(-c3cc(C)cc(Nc4nccc(OCCOC)n4)c3)s2)CC1C (stereo not shown) [Example 113A-44] | < 0.1 µM |  |  |
| CCOC(=O)C1CCC(O)(c2ncc(-c3cc(C)cc(Nc4nccc(OCCCOC)n4)c3)s2)CC1C (stereo not shown) [Example 113A-48] | < 0.1 µM |  |  |
| Cc1cc(Nc2nccc(C)n2)cc(-c2cnc(C3(O)CCC(C(=O)O)C(C)C3C)s2)c1 (stereo not shown) [Example 113A-67] | < 0.1 µM |  |  |
| Cc1cc(Nc2nccc(C)n2)cc(-c2cnc(C3(O)CCC(C(=O)O)C(C)C3C)s2)c1 (stereo not shown) [Example 113A-68] | < 0.1 µM |  |  |
| Cc1cc(Nc2nccc(C)n2)cc(-c2cnc(C3(O)CCC(C(=O)O)C(C)C3C)s2)c1 (stereo not shown) [Example 113A-69] | < 0.1 µM |  |  |
| CCOC(=O)C1CCC(O)(c2ncc(-c3cc(C)cc(Nc4nccc(C)n4)c3)s2)C(C)C1C (stereo not shown) [Example 113A-71] | < 0.1 µM |  |  |
| CCOC(=O)C1CCC(O)(c2ncc(-c3cc(C)cc(Nc4nccc(C)n4)c3)s2)C(C)C1C (stereo not shown) [Example 113A-72] | < 0.1 µM |  |  |
| CCOC(=O)C1CCC(O)(c2ncc(-c3cc(C)cc(Nc4nccc(C)n4)c3)s2)C(C)C1C (stereo not shown) [Example 113A-73] | < 0.1 µM |  |  |
| Cc1cc(Nc2nccc(C)n2)cc(-c2cnc(C3(O)CCC(C(=O)O)CC3C)s2)c1 (stereo not shown) [Example 113A-81] | < 0.1 µM |  |  |
| Cc1cc(Nc2nccc(C)n2)cc(-c2cnc(C3(O)CCC(C(=O)O)CC3C)s2)c1 (stereo not shown) [Example 113A-82] | < 0.1 µM |  |  |
| Cc1cc(Nc2nccc(C)n2)cc(-c2cnc(C3(O)CCC(C(=O)O)CC3C)s2)c1 (stereo not shown) [Example 113A-83] | < 0.1 µM |  |  |
| Cc1cc(Nc2nccc(C)n2)cc(-c2cnc(C3(O)CCC(C(=O)O)CC3C)s2)c1 (stereo not shown) [Example 113A-84] | < 0.1 µM |  |  |
| Cc1cc(Nc2nccc(C)n2)cc(-c2cnc(C3(O)CCC(C(=O)O)CC3C)s2)c1 (stereo not shown) [Example 113A-85] | < 0.1 µM |  |  |
| Cc1cc(Nc2nccc(C)n2)cc(-c2cnc(C3(O)CCC(C(=O)O)CC3C)s2)c1 (stereo not shown) [Example 113A-86] | < 0.1 µM |  |  |
| Cc1cc(Nc2nccc(C)n2)cc(-c2cnc(C3(O)CCC(C(=O)O)CC3O)s2)c1 (stereo not shown) [Example 113A-91] | < 0.1 µM |  |  |
| Cc1cc(Nc2nccc(C)n2)cc(-c2cnc(C3(O)CC(C)C(C(=O)O)CC3C)s2)c1 (stereo not shown) [Example 113B-1] |  | < 0.1 µM |  |
| Cc1cc(Nc2nccc(C)n2)cc(-c2cnc(C3(O)CC(C)C(C(=O)O)CC3C)s2)c1 (stereo not shown) [Example 113B-2] |  | < 0.1 µM |  |
| Cc1cc(Nc2nccc(C)n2)cc(-c2cnc(C3(O)CC(C)C(C(=O)O)CC3C)s2)c1 (stereo not shown) [Example 113B-4] |  | < 0.1 µM |  |
| Cc1cc(Nc2nccc(C)n2)cc(-c2cnc(C3(O)CC(C)C(C(=O)O)CC3C)s2)c1 (stereo not shown) [Example 113B-5] |  | < 0.1 µM |  |
| Cc1cc(Nc2nccc(C)n2)cc(-c2cnc(C3(O)CC(C)C(C(=O)O)CC3C)s2)c1 (stereo not shown) [Example 113B-6] |  | < 0.1 µM |  |
| Cc1cc(Nc2nccc(C(F)(F)F)n2)cc(-c2cnc(C(C)(O)c3ccc(C(=O)O)cn3)s2)c1 (stereo not shown) [Example 113D-6] |  |  | IC50 ([1]; Table 113D, upper part): < 0.1 µM |
| Cc1cc(Nc2ncc(F)c(C)n2)cc(-c2cnc(C3(O)CCC4(CC3)OCCO4)s2)c1 [Example 116B-1] |  |  | IC50 (rhSYK): < 0.1 µM |
| Cc1cc(Nc2ncc(Cl)c(C)n2)cc(-c2cnc(C3(O)CCC4(CC3)OCCO4)s2)c1 [Example 116B-2] |  |  | IC50 (rhSYK): < 0.1 µM |
| Cc1cc(Nc2nccc(C(F)(F)F)n2)cc(-c2cnc(C3(O)CC(C(N)=O)C3)s2)c1 (stereo not shown) [Example 117-1] |  |  | IC50 (rhSYK): < 0.1 µM |

Now from value to compound, other results behind:

| IC50 ([1]; Table 113A) | IC50 ([1]; Table 113B) | SMILES | further results |
| --- | --- | --- | --- |
|  | < 0.1 µM | Cc1cc(Nc2nccc(C(F)(F)F)n2)cc(-c2cnc(C3(O)CC(C)C(C(=O)O)CC3C)s2)c1 (stereo not shown) [Example 113B-13] |  |
|  | < 0.1 µM | Cc1cc(Nc2nccc(C(F)(F)F)n2)cc(-c2cnc(C3(O)CC(C)C(C(=O)O)CC3C)s2)c1 (stereo not shown) [Example 113B-14] |  |
|  | < 0.1 µM | Cc1cc(Nc2nccc(C(F)(F)F)n2)cc(-c2cnc(C3(O)CC(C)C(C(=O)O)CC3C)s2)c1 (stereo not shown) [Example 113B-15] |  |
|  | < 0.1 µM | Cc1cc(Nc2nccc(C(F)(F)F)n2)cc(-c2cnc(C3(O)CC(C)C(C(=O)O)CC3C)s2)c1 (stereo not shown) [Example 113B-16] |  |
|  | < 0.1 µM | Cc1cc(Nc2nccc(C)n2)cc(-c2cnc(C3(O)CC(C)C(C(=O)O)C(C)C3)s2)c1 (stereo not shown) [Example 113B-22] |  |
|  | < 0.1 µM | Cc1cc(Nc2nccc(C(F)(F)F)n2)cc(-c2cnc(C3(O)CC(C)C(C(=O)O)C(C)C3)s2)c1 (stereo not shown) [Example 113B-25] |  |
